Patent US5560924A, “Medicament containing a 2-arylpropionic acid derivative in nanosol form and its preparation” (priority 1994, dated 1996)

Assays:
[1] = cited from earlier work
[2] = cited from earlier work; remark: listed apart in the source
[3] = rapid test for determination of the particle surface charge with standard gelatins; assay type: physicochemical; settings: rapid test at pH 4.5, standard type A (IEP 9.5) and type B (IEP 3.5) gelatins, 200 bloom
Description: In a first rapid test it is determined what charge the precipitated particles have. […] If the particles are, for example, negatively charged, a gelatin is picked which is positively charged under the given pH conditions. This rapid test for the determination of the particle charge has the advantages that it can be carried out without a great outlay in terms of apparatus and time. A time-consuming and inaccurate zeta potential measurement can thus be dispensed with entirely.
At the same dose of the pharmaceutical substance, in the case of the gelatin which is unsuitable in its state of charge a colloidal system will either not form or immediately become unstable or the pharmaceutical substance will flocculate. If the resulting particles are negatively charged, they are stabilized rather by the gelatin solution of Type A, which is positively charged at a pH of 6, than by the solution containing Type B gelatin; in contrast, in this case Type B either will form no colloidal system or the system will immediately destabilize. The flocculation of the particles can be monitored e.g. via a simple turbidity measurement.
Under identical test conditions, the standard type A gelatin (IEP 9.5/200 bloom) yields a briefly stable nanosol.

Compound | tmax (time to blood level maximum) ([1]; conventional ibuprofen) | time until therapeutic concentrations are achieved ([1]; in 2 of 8 subjects investigated) | pKa [2] | surface charge of the particles [3]
CC(C)Cc1ccc(C(C)C(=O)O)cc1 (racemic) [ibuprofen, 2-(4-isobutylphenyl)propionic acid] | 1 to 2 h | more than 4 hours | – | –
CC(C(=O)O)c1cccc(C(=O)c2ccccc2)c1 (racemic) [ketoprofen, 2-(3-benzoylphenyl)propionic acid] | – | – | 5.3 | negative surface charge
